Reference: ChEMBL document CHEMBL3046559, “Sterile oat (Avena sterilis L.) cross-resistance profile to ACCase-inhibiting herbicides in Greece” (2012)

Assays:
Format in all cases: functional
[1] = tested on: Avena sterilis; assay: Herbicidal activity against Avena sterilis accession P17 assessed as weed survival at 1 times field recommended herbicide dose
[2] = tested on: Avena sterilis; assay: Herbicidal activity against Avena sterilis accession P08 assessed as weed survival at 1 times field recommended herbicide dose
[3] = tested on: Avena sterilis; assay: Herbicidal activity against Avena sterilis accession P21S assessed as weed survival at 1/32 times field recommended herbicide dose
[4] = tested on: Avena sterilis; assay: Herbicidal activity against Avena sterilis accession P06S assessed as weed survival at 1/32 times field recommended herbicide dose
[5] = tested on: Avena sterilis; assay: Herbicidal activity against Avena sterilis accession P22 assessed as weed survival at 32 times field recommended herbicide dose
[6] = tested on: Avena sterilis; assay: Herbicidal activity against Avena sterilis accession P20 assessed as weed survival at 32 times field recommended herbicide dose
[7] = tested on: Avena sterilis; assay: Herbicidal activity against Avena sterilis accession P18 assessed as weed survival at 32 times field recommended herbicide dose
[8] = tested on: Avena sterilis; assay: Herbicidal activity against Avena sterilis accession P03 assessed as weed survival at 1 times field recommended herbicide dose
[9] = tested on: Avena sterilis; assay: Herbicidal activity against Avena sterilis accession P02 assessed as weed survival at 1 times field recommended herbicide dose
[10] = tested on: Avena sterilis; assay: Herbicidal activity against Avena sterilis accession P01 assessed as weed survival at 1 times field recommended herbicide dose
[11] = tested on: Avena sterilis; assay: Herbicidal activity against Avena sterilis accession P19S assessed as induction of weed mortality
[12] = tested on: Avena sterilis; assay: Herbicidal activity against Avena sterilis accession P13S assessed as induction of weed mortality
[13] = tested on: Avena sterilis; assay: Herbicidal activity against Avena sterilis accession P06S assessed as induction of weed mortality
[14] = tested on: Avena sterilis; assay: Herbicidal activity against Avena sterilis accession P22 assessed as induction of weed mortality
[15] = tested on: Avena sterilis; assay: Herbicidal activity against Avena sterilis accession P20 assessed as induction of weed mortality
[16] = tested on: Avena sterilis; assay: Herbicidal activity against Avena sterilis accession P16 assessed as induction of weed mortality
[17] = tested on: Avena sterilis; assay: Herbicidal activity against Avena sterilis accession P14 assessed as induction of weed mortality
[18] = tested on: Avena sterilis; assay: Herbicidal activity against Avena sterilis accession P11 assessed as induction of weed mortality
[19] = tested on: Avena sterilis; assay: Herbicidal activity against Avena sterilis accession P07 assessed as induction of weed mortality
[20] = tested on: Avena sterilis; assay: Herbicidal activity against Avena sterilis accession P04 assessed as induction of weed mortality
[21] = tested on: Avena sterilis; assay: Herbicidal activity against Avena sterilis accession P16 assessed as weed survival at 8 times field recommended herbicide dose
[22] = tested on: Avena sterilis; assay: Herbicidal activity against Avena sterilis accession P15 assessed as weed survival at 8 times field recommended herbicide dose
[23] = tested on: Avena sterilis; assay: Herbicidal activity against Avena sterilis accession P16 assessed as weed survival at 32 times field recommended herbicide dose
[24] = tested on: Avena sterilis; assay: Herbicidal activity against Avena sterilis accession P12 assessed as weed survival at 32 times field recommended herbicide dose
[25] = tested on: Avena sterilis; assay: Herbicidal activity against Avena sterilis accession P07 assessed as weed survival at 32 times field recommended herbicide dose
[26] = tested on: Avena sterilis; assay: Herbicidal activity against Avena sterilis accession P05 assessed as weed survival at 32 times field recommended herbicide dose
[27] = tested on: Avena sterilis; assay: Herbicidal activity against Avena sterilis accession P03 assessed as weed survival at 32 times field recommended herbicide dose
[28] = tested on: Avena sterilis; assay: Herbicidal activity against Avena sterilis accession P02 assessed as weed survival at 32 times field recommended herbicide dose
[29] = tested on: Avena sterilis; assay: Herbicidal activity against Avena sterilis accession P21S assessed as weed survival at 1/16 times field recommended herbicide dose
[30] = tested on: Avena sterilis; assay: Herbicidal activity against Avena sterilis accession P10S assessed as weed survival at 1/16 times field recommended herbicide dose
[31] = tested on: Avena sterilis; assay: Herbicidal activity against Avena sterilis accession P22 assessed as weed survival at 16 times field recommended herbicide dose
[32] = tested on: Avena sterilis; assay: Herbicidal activity against Avena sterilis accession P20 assessed as weed survival at 16 times field recommended herbicide dose
[33] = tested on: Avena sterilis; assay: Herbicidal activity against Avena sterilis accession P18 assessed as weed survival at 16 times field recommended herbicide dose
[34] = tested on: Avena sterilis; assay: Herbicidal activity against Avena sterilis accession P17 assessed as weed survival at 16 times field recommended herbicide dose
[35] = tested on: Avena sterilis; assay: Herbicidal activity against Avena sterilis accession P15 assessed as weed survival at 16 times field recommended herbicide dose
[36] = tested on: Avena sterilis; assay: Herbicidal activity against Avena sterilis accession P12 assessed as weed survival at 16 times field recommended herbicide dose
[37] = tested on: Avena sterilis; assay: Herbicidal activity against Avena sterilis accession P09 assessed as weed survival at 16 times field recommended herbicide dose
[38] = tested on: Avena sterilis; assay: Herbicidal activity against Avena sterilis accession P08 assessed as weed survival at 16 times field recommended herbicide dose
[39] = tested on: Avena sterilis; assay: Herbicidal activity against Avena sterilis accession P07 assessed as weed survival at 16 times field recommended herbicide dose
[40] = tested on: Avena sterilis; assay: Herbicidal activity against Avena sterilis accession P05 assessed as weed survival at 16 times field recommended herbicide dose
[41] = tested on: Avena sterilis; assay: Herbicidal activity against Avena sterilis accession P04 assessed as weed survival at 16 times field recommended herbicide dose
[42] = tested on: Avena sterilis; assay: Herbicidal activity against Avena sterilis accession P03 assessed as weed survival at 16 times field recommended herbicide dose
[43] = tested on: Avena sterilis; assay: Herbicidal activity against Avena sterilis accession P01 assessed as weed survival at 16 times field recommended herbicide dose
[44] = tested on: Avena sterilis; assay: Herbicidal activity against Avena sterilis accession P19S assessed as weed survival at 1/8 times field recommended herbicide dose
[45] = tested on: Avena sterilis; assay: Herbicidal activity against Avena sterilis accession P22 assessed as weed survival at 8 times field recommended herbicide dose
[46] = tested on: Avena sterilis; assay: Herbicidal activity against Avena sterilis accession P20 assessed as weed survival at 8 times field recommended herbicide dose
[47] = tested on: Avena sterilis; assay: Herbicidal activity against Avena sterilis accession P02 assessed as weed survival at 8 times field recommended herbicide dose
[48] = tested on: Avena sterilis; assay: Herbicidal activity against Avena sterilis accession P01 assessed as weed survival at 8 times field recommended herbicide dose
[49] = tested on: Avena sterilis; assay: Herbicidal activity against Avena sterilis accession P21S assessed as weed survival at 1/4 times field recommended herbicide dose
[50] = tested on: Avena sterilis; assay: Herbicidal activity against Avena sterilis accession P13S assessed as weed survival at 1/4 times field recommended herbicide dose
[51] = tested on: Avena sterilis; assay: Herbicidal activity against Avena sterilis accession P16 assessed as weed survival at 4 times field recommended herbicide dose
[52] = tested on: Avena sterilis; assay: Herbicidal activity against Avena sterilis accession P14 assessed as weed survival at 4 times field recommended herbicide dose
[53] = tested on: Avena sterilis; assay: Herbicidal activity against Avena sterilis accession P11 assessed as weed survival at 4 times field recommended herbicide dose
[54] = tested on: Avena sterilis; assay: Herbicidal activity against Avena sterilis accession P09 assessed as weed survival at 4 times field recommended herbicide dose
[55] = tested on: Avena sterilis; assay: Herbicidal activity against Avena sterilis accession P06S assessed as weed survival at 1 times field recommended herbicide dose
[56] = tested on: Avena sterilis; assay: Herbicidal activity against Avena sterilis accession P20 assessed as weed survival at 1 times field recommended herbicide dose
[57] = tested on: Avena sterilis; assay: Herbicidal activity against Avena sterilis accession P03 assessed as weed survival at 4 times field recommended herbicide dose
[58] = tested on: Avena sterilis; assay: Herbicidal activity against Avena sterilis accession P01 assessed as weed survival at 4 times field recommended herbicide dose

Q: `CCOC(=O)[C@@H](C)Oc1ccc(Oc2nc3ccc(Cl)cc3o2)cc1` [FENOXAPROP-P-ETHYL] was tested. Which Survival [1] did it give?
A: The Survival was 97%.

Q: And the Survival [2]?
A: The Survival was 100%.

Q: What about the Survival [3] of the same molecule?
A: Its Survival is 97%.

Q: And the Survival [4]?
A: The Survival was 97%.

Q: What about the Survival [5] of the same molecule?
A: Its Survival is 0%.

Q: And the Survival [6]?
A: Its Survival is 53%.

Q: What about the Survival [7] of the same molecule?
A: The Survival was 60%.

Q: And the Survival [8]?
A: The Survival was 97%.

Q: And the Survival [9]?
A: The Survival was 100%.

Q: And the Survival [10]?
A: The Survival was 97%.

Q: What about the GR50 [11] of the same molecule?
A: Its GR50 is 31 gAi/ha.

Q: What about the GR50 [12] of the same molecule?
A: Its GR50 is 18 gAi/ha.

Q: What about the GR50 [13] of the same molecule?
A: The GR50 was 18 gAi/ha.

Q: And the GR50 [14]?
A: Its GR50 is 250 gAi/ha.

Q: What about the GR50 [15] of the same molecule?
A: Its GR50 is over 2640 gAi/ha.

Q: What about the GR50 [16] of the same molecule?
A: Its GR50 is 505 gAi/ha.

Q: And the GR50 [17]?
A: The GR50 was 155 gAi/ha.

Q: And the GR50 [18]?
A: The GR50 was 2261 gAi/ha.

Q: What about the GR50 [19] of the same molecule?
A: Its GR50 is over 2640 gAi/ha.

Q: What about the GR50 [20] of the same molecule?
A: The GR50 was 913 gAi/ha.

Q: And the Survival [21]?
A: Its Survival is 20%.

Q: And the Survival [22]?
A: Its Survival is 70%.

Q: What about the Survival [23] of the same molecule?
A: Its Survival is 0%.

Q: And the Survival [24]?
A: Its Survival is 40%.

Q: And the Survival [25]?
A: Its Survival is 70%.

Q: And the Survival [26]?
A: Its Survival is 0%.

Q: What about the Survival [27] of the same molecule?
A: The Survival was 37%.

Q: What about the Survival [28] of the same molecule?
A: Its Survival is 40%.

Q: What about the Survival [29] of the same molecule?
A: Its Survival is 83%.

Q: And the Survival [30]?
A: The Survival was 87%.

Q: What about the Survival [31] of the same molecule?
A: Its Survival is 0%.

Q: What about the Survival [32] of the same molecule?
A: The Survival was 83%.

Q: What about the Survival [33] of the same molecule?
A: The Survival was 73%.

Q: What about the Survival [34] of the same molecule?
A: Its Survival is 20%.

Q: What about the Survival [35] of the same molecule?
A: Its Survival is 60%.

Q: What about the Survival [36] of the same molecule?
A: Its Survival is 50%.

Q: What about the Survival [37] of the same molecule?
A: Its Survival is 60%.

Q: And the Survival [38]?
A: Its Survival is 30%.

Q: And the Survival [39]?
A: Its Survival is 80%.

Q: What about the Survival [40] of the same molecule?
A: Its Survival is 20%.

Q: What about the Survival [41] of the same molecule?
A: The Survival was 37%.

Q: What about the Survival [42] of the same molecule?
A: Its Survival is 40%.

Q: And the Survival [43]?
A: The Survival was 23%.

Q: What about the Survival [44] of the same molecule?
A: Its Survival is 87%.

Q: And the Survival [45]?
A: Its Survival is 7%.

Q: And the Survival [46]?
A: Its Survival is 90%.

Q: What about the Survival [47] of the same molecule?
A: The Survival was 93%.

Q: And the Survival [48]?
A: The Survival was 40%.

Q: And the Survival [49]?
A: Its Survival is 43%.

Q: What about the Survival [50] of the same molecule?
A: Its Survival is 43%.

Q: And the Survival [51]?
A: Its Survival is 90%.

Q: And the Survival [52]?
A: Its Survival is 43%.

Q: What about the Survival [53] of the same molecule?
A: The Survival was 83%.

Q: What about the Survival [54] of the same molecule?
A: The Survival was 80%.

Q: What about the Survival [55] of the same molecule?
A: The Survival was 0%.

Q: What about the Survival [56] of the same molecule?
A: The Survival was 97%.

Q: And the Survival [57]?
A: The Survival was 50%.

Q: What about the Survival [58] of the same molecule?
A: The Survival was 73%.
